Data set [1] concerns the target 5-hydroxytryptamine receptor 2A (Homo sapiens) (UniProt P28223). The data set is described as follows: Inhibition of 5HT2A receptor at 0.5 uM.
Data set [2] is described as follows: Metabolic stability in rat liver microsomes assessed as drug metabolized level after 30 mins. As to conditions: read-out: Activity. Type of data set: ADME, Microsome.
In data set [3] the target is T1, Alpha-1B adrenergic receptor (Homo sapiens) (UniProt P35368).
T1 sequence (whole entry): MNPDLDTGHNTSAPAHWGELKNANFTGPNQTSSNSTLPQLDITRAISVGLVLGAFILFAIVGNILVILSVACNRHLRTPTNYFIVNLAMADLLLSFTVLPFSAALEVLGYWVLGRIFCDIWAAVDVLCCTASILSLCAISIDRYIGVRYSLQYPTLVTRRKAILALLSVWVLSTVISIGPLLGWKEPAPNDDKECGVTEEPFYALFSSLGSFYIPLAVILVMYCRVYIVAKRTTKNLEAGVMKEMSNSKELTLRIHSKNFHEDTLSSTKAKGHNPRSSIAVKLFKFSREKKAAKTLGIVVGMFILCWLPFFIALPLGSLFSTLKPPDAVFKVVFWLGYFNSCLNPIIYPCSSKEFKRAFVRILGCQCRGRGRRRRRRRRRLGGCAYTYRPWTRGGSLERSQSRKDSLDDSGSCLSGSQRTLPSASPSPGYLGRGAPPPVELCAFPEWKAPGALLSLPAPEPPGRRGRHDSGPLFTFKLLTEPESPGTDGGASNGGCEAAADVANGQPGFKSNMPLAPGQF
Kind of data set: Inhibition of adrenergic alpha1b receptor at 0.5 uM.

Data set [4] addresses 5-hydroxytryptamine receptor 6 (Homo sapiens) (UniProt P50406). Kind of data set: Binding affinity to human recombinant 5HT6 receptor expressed in CHO cells co-expressing pCRE-Luc gene assessed as modulation of serotonin-induced intracellular cAMP level after 4 hrs by luciferase based luminescence assay. Type of data set: cell-based.
Data set [5] can be described thus: Metabolic stability in human liver microsomes assessed as drug metabolized level after 30 mins. Type of data set: ADME, Microsome. As to conditions: read-out: Activity.
In data set [6] the target is Sodium-dependent dopamine transporter (Homo sapiens) (UniProt Q01959). The data set is described as follows: Inhibition of DAT at 0.5 uM.
Chain of Sodium-dependent dopamine transporter (Homo sapiens) (Q01959 whole entry): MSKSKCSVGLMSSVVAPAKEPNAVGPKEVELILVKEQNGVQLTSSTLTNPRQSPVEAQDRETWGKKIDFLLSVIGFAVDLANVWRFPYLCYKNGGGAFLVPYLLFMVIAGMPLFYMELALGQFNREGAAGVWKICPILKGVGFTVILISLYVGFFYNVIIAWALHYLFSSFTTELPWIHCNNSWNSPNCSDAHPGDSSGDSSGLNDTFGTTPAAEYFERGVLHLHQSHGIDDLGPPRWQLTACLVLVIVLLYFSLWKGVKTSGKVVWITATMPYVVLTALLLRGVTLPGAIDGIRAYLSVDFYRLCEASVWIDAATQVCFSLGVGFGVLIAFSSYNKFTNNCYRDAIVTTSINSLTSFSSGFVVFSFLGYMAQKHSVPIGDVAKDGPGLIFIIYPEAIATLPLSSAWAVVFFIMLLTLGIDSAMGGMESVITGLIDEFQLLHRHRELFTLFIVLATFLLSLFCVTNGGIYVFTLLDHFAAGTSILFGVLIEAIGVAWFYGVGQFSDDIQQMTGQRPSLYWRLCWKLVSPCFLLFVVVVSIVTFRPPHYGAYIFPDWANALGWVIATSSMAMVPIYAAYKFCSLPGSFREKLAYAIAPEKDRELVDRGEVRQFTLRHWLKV
The target of data set [7] is Histamine H1 receptor (Homo sapiens) (UniProt P35367). Kind of data set: Inhibition of histamine H1 receptor at 0.5 uM.
Chain of Histamine H1 receptor (Homo sapiens) (P35367 whole entry): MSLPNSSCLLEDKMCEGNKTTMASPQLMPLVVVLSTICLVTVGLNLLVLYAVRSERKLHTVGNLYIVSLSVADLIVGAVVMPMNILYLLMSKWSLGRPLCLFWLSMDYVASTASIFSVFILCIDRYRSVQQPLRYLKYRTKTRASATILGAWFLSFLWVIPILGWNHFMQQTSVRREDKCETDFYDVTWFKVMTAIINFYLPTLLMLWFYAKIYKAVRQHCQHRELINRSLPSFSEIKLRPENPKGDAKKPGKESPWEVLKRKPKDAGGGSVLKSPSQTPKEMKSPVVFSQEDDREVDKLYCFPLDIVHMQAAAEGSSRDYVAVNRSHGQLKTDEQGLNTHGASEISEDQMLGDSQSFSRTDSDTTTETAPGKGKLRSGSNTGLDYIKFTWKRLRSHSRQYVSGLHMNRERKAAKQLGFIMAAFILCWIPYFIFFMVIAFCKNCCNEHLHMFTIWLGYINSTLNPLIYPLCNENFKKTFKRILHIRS
Data set [8] addresses Sodium-dependent noradrenaline transporter (Homo sapiens) (UniProt P23975). The data set is described as follows: Inhibition of NET at 0.5 uM.
Data set [9] concerns the target Sodium-dependent serotonin transporter (Homo sapiens) (UniProt P31645). The data set is described as follows: Inhibition of SERT at 0.5 uM.
Data set [10] deals with T2, 5-hydroxytryptamine receptor 2C (Homo sapiens) (UniProt P28335).
T2 sequence (whole entry): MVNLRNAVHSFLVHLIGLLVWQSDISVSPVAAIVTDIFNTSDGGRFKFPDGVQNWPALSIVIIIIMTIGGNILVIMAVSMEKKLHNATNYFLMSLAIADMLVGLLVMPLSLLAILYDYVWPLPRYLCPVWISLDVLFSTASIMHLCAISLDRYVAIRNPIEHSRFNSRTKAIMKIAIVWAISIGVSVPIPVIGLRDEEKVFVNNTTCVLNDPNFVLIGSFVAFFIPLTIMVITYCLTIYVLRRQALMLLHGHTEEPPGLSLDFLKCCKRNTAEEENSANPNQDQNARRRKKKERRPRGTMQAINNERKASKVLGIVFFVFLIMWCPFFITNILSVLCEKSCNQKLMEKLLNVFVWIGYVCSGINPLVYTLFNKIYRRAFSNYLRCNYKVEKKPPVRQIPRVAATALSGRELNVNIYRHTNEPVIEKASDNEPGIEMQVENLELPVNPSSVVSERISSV
The data set is described as follows: Inhibition of 5HT2C receptor at 0.5 uM.

The target of data set [11] is D(2) dopamine receptor (Homo sapiens) (UniProt P14416). The data set is described as follows: Inhibition of dopamine D2 receptor at 0.5 uM.
Chain of D(2) dopamine receptor (Homo sapiens) (P14416 whole entry): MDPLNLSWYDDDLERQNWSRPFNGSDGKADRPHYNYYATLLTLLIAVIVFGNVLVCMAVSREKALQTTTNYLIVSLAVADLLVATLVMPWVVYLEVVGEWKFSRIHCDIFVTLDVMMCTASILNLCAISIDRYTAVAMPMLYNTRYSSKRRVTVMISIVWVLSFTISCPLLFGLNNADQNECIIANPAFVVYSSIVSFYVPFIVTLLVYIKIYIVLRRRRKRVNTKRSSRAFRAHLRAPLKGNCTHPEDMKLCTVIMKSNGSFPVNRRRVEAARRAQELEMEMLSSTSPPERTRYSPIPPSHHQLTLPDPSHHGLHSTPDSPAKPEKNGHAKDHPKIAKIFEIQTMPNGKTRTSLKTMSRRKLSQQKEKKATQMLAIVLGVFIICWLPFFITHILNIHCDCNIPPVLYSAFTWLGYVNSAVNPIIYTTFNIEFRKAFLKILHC
The target of data set [12] is 5-hydroxytryptamine receptor 4 (Homo sapiens) (UniProt Q13639). Kind of data set: Binding affinity to human recombinant 5HT4 receptor expressed in CHO cells co-expressing pCRE-Luc gene assessed as modulation of serotonin-induced intracellular cAMP level at 0.5 uM after 5 hrs by luciferase based luminescence assay. Type of data set: cell-based.
Chain of 5-hydroxytryptamine receptor 4 (Homo sapiens) (Q13639 whole entry): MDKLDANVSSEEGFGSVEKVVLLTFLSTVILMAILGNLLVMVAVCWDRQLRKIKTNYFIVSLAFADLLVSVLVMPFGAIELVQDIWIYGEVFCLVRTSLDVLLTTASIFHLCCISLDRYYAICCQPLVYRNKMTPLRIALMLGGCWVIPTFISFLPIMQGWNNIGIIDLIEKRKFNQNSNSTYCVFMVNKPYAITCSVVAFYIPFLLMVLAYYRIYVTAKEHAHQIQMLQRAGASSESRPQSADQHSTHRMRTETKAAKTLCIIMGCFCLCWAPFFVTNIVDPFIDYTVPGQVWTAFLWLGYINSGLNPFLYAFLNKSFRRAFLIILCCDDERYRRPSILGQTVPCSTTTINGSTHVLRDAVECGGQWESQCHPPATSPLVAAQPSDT
The target of data set [13] is 5-hydroxytryptamine receptor 7 (Rattus norvegicus) (UniProt P32305). The data set is described as follows: Binding affinity to rat 5HT7 receptor expressed in CHO cells co-expressing pCRE-Luc gene assessed as modulation of serotonin-induced intracellular cAMP level at 0.5 uM after 5 hrs by luciferase based luminescence assay. Type of data set: cell-based.
Chain of 5-hydroxytryptamine receptor 7 (Rattus norvegicus) (P32305 whole entry): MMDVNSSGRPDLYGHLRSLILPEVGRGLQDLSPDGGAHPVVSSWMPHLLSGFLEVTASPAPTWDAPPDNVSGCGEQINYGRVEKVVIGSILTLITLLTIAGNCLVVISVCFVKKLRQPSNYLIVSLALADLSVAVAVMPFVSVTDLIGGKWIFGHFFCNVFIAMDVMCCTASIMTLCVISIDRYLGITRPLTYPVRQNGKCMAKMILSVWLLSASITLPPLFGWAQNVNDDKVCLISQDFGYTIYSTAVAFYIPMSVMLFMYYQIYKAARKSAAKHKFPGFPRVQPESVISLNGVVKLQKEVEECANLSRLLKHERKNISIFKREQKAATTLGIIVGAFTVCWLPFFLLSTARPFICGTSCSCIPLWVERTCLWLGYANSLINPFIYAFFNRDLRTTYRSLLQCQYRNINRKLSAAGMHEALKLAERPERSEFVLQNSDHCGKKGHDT
Data set [14] has as its target T3, Muscarinic acetylcholine receptor M1 (Homo sapiens) (UniProt P11229).
T3 sequence (whole entry): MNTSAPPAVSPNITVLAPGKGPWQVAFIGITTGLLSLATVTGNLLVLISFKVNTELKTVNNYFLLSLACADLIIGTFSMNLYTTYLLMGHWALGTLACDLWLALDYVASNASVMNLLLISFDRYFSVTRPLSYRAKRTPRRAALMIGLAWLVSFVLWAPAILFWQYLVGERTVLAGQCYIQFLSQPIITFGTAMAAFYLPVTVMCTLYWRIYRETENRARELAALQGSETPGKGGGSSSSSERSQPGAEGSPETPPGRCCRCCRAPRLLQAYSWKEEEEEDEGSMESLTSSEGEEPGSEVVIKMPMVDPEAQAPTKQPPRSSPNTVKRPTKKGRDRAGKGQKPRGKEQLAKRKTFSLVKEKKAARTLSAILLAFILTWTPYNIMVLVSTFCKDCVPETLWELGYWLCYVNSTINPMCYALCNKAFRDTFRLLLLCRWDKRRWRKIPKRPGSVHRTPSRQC
Kind of data set: Binding affinity to human muscarinic M1 receptor expressed in CHO cells co-expressing pCRE-Luc gene assessed as modulation of acetylcholine-induced intracellular cAMP level at 0.5 uM after 5 hrs by luciferase based luminescence assay. Type of data set: cell-based.

Data set [15] can be described thus: Half life in Wistar rat at 10 mg/kg, iv. Type of data set: ADME, organism-based. Further details: dose 10 mg/kg, route intravenous. Conditions: in vivo.
Data set [16] concerns Rattus norvegicus. The data set is described as follows: Cognitive enhancing effect in rat at 10 mg/kg, po after 60 mins by novel object recognition test. Type of data set: functional, organism-based. Further details: dose 10 mg/kg.
Data set [17] is described as follows: Apparent volume of distribution in Wistar rat at 10 mg/kg, iv. As to conditions: in vivo, read-out: Vz. Type of data set: ADME, organism-based. On the set-up: dose 10 mg/kg, route intravenous.
Data set [18] has as its system Rattus norvegicus. Kind of data set: Cognitive enhancing effect against scopolamine-induced memory deficit in rat at 10 mg/kg, po by morris water maze test. Further details: dose 10 mg/kg. Type of data set: functional, organism-based.
A short description of data set [19]: Cmax in Wistar rat at 10 mg/kg, po. On the set-up: dose 10 mg/kg, route oral. As to conditions: in vivo. Type of data set: ADME, organism-based.
Data set [20] relates to Rattus norvegicus. The data set is described as follows: Apparent volume of distribution in Wistar rat at 10 mg/kg, po. Type of data set: ADME, organism-based. On the set-up: dose 10 mg/kg, route oral. Conditions: in vivo.
In a further data set the target is Cytochrome P450 2D6 (Homo sapiens, UniProt P10635). Kind of data set: Inhibition of CYP2D6. Type of data set: ADME.
A short description of data set [21]: AUCt in Wistar rat at 10 mg/kg, po. On the set-up: dose 10 mg/kg, route oral. Type of data set: ADME, organism-based. Conditions: plasma.
The nature of data set [22]: Clearance in Wistar rat at 10 mg/kg, iv. Type of data set: ADME, organism-based. As to conditions: in vivo. On the set-up: dose 10 mg/kg, route intravenous.
Data set [23] in a line: Oral bioavailability in Wistar rat at 10 mg/kg. Type of data set: ADME, organism-based. As to conditions: in vivo.
Data set [24] is described as follows: Half life in Wistar rat at 10 mg/kg, po. Type of data set: ADME, organism-based. On the set-up: dose 10 mg/kg, route oral. Conditions: in vivo.
A short description of data set [25]: Cmax in Wistar rat at 10 mg/kg, iv. Type of data set: ADME, organism-based. Further details: dose 10 mg/kg, route intravenous. As to conditions: in vivo.
Data set [26] in a line: Ratio of drug level in brain to plasma in Wistar rat at 1 mg/kg, iv after 6 hrs. Type of data set: ADME, organism-based. Further details: dose 1 mg/kg, route intravenous.
Data set [27] can be described thus: AUCt in Wistar rat at 10 mg/kg, iv. On the set-up: dose 10 mg/kg, route intravenous. Type of data set: ADME, organism-based. Conditions: plasma.
Data set [28] can be described thus: Clearance in Wistar rat at 10 mg/kg, po. Type of data set: ADME, organism-based. Further details: dose 10 mg/kg, route oral. As to conditions: in vivo.
The next data set concerns the target Cytochrome P450 3A4 (Homo sapiens, UniProt P08684). Kind of data set: Inhibition of CYP3A4. Type of data set: ADME.

Structures are written as SMILES. pIC50: −log10 of the molar value. The source made the active and inactive calls. No cut-off for these calls is given here.

Chain of Sodium-dependent noradrenaline transporter (Homo sapiens) (P23975 whole entry): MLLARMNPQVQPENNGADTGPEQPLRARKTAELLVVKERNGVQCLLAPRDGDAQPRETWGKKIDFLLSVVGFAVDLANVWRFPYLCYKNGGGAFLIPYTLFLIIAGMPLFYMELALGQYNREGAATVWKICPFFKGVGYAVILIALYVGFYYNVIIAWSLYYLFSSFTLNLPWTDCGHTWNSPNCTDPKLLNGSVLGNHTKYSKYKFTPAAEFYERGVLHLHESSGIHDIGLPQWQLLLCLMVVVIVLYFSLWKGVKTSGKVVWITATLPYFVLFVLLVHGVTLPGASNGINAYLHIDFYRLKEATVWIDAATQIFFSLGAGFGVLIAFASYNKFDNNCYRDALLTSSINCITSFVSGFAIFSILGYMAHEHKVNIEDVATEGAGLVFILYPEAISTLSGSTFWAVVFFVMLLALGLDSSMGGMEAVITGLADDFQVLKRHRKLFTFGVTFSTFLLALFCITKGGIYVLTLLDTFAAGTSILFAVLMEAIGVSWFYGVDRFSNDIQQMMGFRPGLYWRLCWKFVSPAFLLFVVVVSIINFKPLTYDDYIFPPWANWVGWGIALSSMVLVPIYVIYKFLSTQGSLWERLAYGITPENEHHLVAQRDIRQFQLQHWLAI
Chain of 5-hydroxytryptamine receptor 6 (Homo sapiens) (P50406 whole entry): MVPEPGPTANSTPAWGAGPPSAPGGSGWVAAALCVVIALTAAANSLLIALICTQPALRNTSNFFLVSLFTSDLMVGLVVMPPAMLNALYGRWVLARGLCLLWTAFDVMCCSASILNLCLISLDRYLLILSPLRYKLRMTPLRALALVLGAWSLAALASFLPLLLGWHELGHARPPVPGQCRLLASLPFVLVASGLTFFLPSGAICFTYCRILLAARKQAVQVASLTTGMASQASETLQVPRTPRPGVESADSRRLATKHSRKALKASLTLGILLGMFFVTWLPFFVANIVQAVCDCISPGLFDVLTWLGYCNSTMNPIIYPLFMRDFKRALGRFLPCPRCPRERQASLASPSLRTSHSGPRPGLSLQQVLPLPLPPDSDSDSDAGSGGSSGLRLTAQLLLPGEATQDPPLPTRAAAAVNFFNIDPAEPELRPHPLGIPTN
Chain of Sodium-dependent serotonin transporter (Homo sapiens) (P31645 whole entry, looked up): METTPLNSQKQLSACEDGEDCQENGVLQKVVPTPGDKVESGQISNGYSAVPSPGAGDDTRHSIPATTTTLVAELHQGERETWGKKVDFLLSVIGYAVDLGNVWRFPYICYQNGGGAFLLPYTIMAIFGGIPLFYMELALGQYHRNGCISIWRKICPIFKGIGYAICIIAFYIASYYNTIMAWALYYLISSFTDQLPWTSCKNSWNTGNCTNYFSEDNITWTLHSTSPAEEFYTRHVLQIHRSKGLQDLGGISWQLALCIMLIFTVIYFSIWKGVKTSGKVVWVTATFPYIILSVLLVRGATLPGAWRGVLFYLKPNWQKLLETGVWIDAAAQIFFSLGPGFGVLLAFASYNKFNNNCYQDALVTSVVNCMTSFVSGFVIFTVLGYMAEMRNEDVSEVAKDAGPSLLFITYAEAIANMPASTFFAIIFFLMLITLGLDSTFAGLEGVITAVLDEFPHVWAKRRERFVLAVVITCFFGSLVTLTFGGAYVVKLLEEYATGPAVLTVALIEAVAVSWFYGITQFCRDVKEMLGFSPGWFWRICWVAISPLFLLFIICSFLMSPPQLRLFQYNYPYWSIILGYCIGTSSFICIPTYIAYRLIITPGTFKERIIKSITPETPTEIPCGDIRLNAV
Chain of 5-hydroxytryptamine receptor 2A (Homo sapiens) (P28223 whole entry): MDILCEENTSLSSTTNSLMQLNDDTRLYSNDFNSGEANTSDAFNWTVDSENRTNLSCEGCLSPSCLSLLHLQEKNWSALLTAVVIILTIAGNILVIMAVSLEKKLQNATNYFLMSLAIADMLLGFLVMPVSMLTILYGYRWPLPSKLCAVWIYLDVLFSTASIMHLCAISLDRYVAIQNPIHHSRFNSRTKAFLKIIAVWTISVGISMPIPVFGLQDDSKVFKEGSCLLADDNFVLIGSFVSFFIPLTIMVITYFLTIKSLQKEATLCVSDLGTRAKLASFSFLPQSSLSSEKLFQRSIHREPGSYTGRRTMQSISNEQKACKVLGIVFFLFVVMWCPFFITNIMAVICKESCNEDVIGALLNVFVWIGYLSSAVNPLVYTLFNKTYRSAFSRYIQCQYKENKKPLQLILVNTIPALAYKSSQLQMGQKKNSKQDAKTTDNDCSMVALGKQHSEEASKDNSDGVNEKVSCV

For the molecule `COc1ccc2c(c1)c(C1=C(Cl)CN(C)C1)cn2S(=O)(=O)c1ccccc1`, the inhibition in [1], in data set [3], in data set [6], in data set [7], in [8] and in [9] was less than 50% throughout. Moreover, the inhibition in data set [10], in [11], in data set [12], in [13] and in data set [14] was less than 50% each time. The metabolised at 0.5 h in [2] amounted to 96%; in data set [5] it was 97%. Moreover, the Kb in data set [4] turned out to be 0.0001 µM.
On to `CN1CC(Cl)=C(c2cn(S(=O)(=O)c3ccccc3)c3ccccc23)C1`, for which the half-life in [15] was 5.48 h; in data set [24] it was 3.75 h. Further, the inhibition in data set [1], in [3], in [6], in data set [7], in data set [8] and in data set [9] was less than 50% each time. Also, the inhibition in [10], in data set [11], in data set [12], in data set [13] and in data set [14] was less than 50% each time. Further, the metabolised at 0.5 h in data set [2] was 70%; in data set [5], 43%. Besides, the outcome with Rattus norvegicus [16] and in the data set on Rattus norvegicus [18] was Active. The Vd in [17] was 34.9 L/kg. Also, in data set [4], the Kb was 0.0001 µM. For the same molecule, the highest concentration (Cmax) came out at 105 ng/mL in [19] and 2690 ng/mL in data set [25]. In the data set with Rattus norvegicus [20], the Vz stood at 196.287 L/kg. Further, the pIC50 is 4.68 at Cytochrome P450 2D6 and 4.83 against Cytochrome P450 3A4. Also, the AUC(0-t) in data set [21] amounted to 268 ng·h/mL; in [27], 2320 ng·h/mL. This molecule gave a clearance in data set [22] of 72.5 mL/min/kg. The molecule further returned a bioavailability in data set [23] of 12%. Further, the Kp at 6 h in [26] amounted to 1.79. The CL/F in [28] is 585 mL/min/kg.
